Columns and labels:
[1] = In vivo mouse model, PK-PD of betrixaban with antidote; set-up: species or system C57Bl/6 mice; settings: male, C57Bl/6, mouse, plasma, oral, Betrixaban (ng/mL), […] after 15 mg/kg betrixaban PO, 5 min after antidote injection
thrombin generation = assay: Thrombin generation assay in platelet poor plasma; assay type: biochemical, human; settings: betrixaban 250 nM; in presence of rfVIIa (50-200 nM) and tissue factor; PPP
[2] = system: aPTT of pooled human plasma; assay: aPTT human plasma clotting assay (MLA Electra 800 coagulation timer); assay type: biochemical
[3] = Sustained reversal of betrixaban-induced anticoagulation in rats; assay type: in vivo; settings: rat, plasma, intravenous
[4] = in vivo; cited from earlier work
[5] = system: PT of pooled human plasma; assay: Prothrombin time (PT) human plasma clotting assay; assay type: biochemical
[6] = system: PT of rhesus monkey plasma; assay: Prothrombin time in rhesus monkey plasma; assay type: biochemical, rhesus monkeys; settings: 250 nM rivaroxaban; baseline 17.5±1.6 sec
[7] = system: enoxaparin-induced anticoagulation; assay: Enoxaparin-induced anticoagulation and its reversal in rats; assay type: in vivo
[8] = cited from earlier work
[9] = system: clot formation in human platelet poor plasma; assay: Clotting prolongation assay, 96-well plate format (OD405 turbidity); assay type: biochemical; settings: 1 U/ml enoxaparin; aPTT reagent
[10] = system: blood loss due to enoxaparin; set-up: species or system Sprague-Dawley rats; settings: in vivo
fXa (bovine fXa) = assay: Plasma anti-fXa activity assay (modified Coamatic LMWH kit); assay type: in vivo; set-up: dose or concentration left out as unconfirmed; settings: fondaparinux
[11] = system: blood loss due to fondaparinux; assay: Rat tail transection blood loss model, fondaparinux; assay type: in vivo, Sprague-Dawley rats; settings: fondaparinux 25 mg/kg IV bolus, protamine 0.9 mg IV bolus
[12] = 1 mg/kg/hr, Betrixaban alone (uM), plasma concentration, betrixaban 1.0 mg/kg/hr IV for 30 min, no antidote
[13] = Betrixaban + antidote (uM), betrixaban plasma concentration, betrixaban infusion then r-Antidote 5 mg bolus + 5 mg/hr

## COc1ccc(NC(=O)c2ccc(C(=N)N(C)C)cc2)c(C(=O)Nc2ccc(Cl)cn2)c1 [betrixaban, [2-({4-[(dimethylamino)iminomethyl]phenyl}carbonylamino)-5-methoxyphenyl]-N-(5-chloro(2-pyridyl))carboxamide]
[1]; Mean, pd-Antidote treated mice
  concentration at […]: 687 ng/mL
[1]; Mean, r-Antidote treated mice
  concentration at […]: 381 ng/mL
[1]; individual animal, r-Antidote treated mice
  concentration at […]: 434 ng/mL
Thrombin generation
  inhibition of fXa by betrixaban (thrombin generation): about 75%
[2]; 300 nM Betrixaban
  aPTT: 61.8 s
[2]; 400 nM betrixaban
  aPTT: 66.3 s
  extension of aPTT: more than two folds
[3]; 1 mg/kg/hr, Betrixaban + antidote (uM), betrixaban plasma concentration, betrixaban 1.0 mg/kg/hr IV for 30 min, antidote group before antidote dosing
  concentration at 30 min: 0.154 µM
[3]; [12]
  concentration at 30 min: 0.169 µM
  concentration at 35 min: 0.062 µM
  concentration at 60 min: 0.045 µM
  concentration at 90 min: 0.048 µM
[3]; [13]
  concentration at 35 min: 1.57 µM
  concentration at 60 min: 1.88 µM
  concentration at 90 min: 1.19 µM

## O=C(NC[C@H]1CN(c2ccc(N3CCOCC3=O)cc2)C(=O)O1)c1ccc(Cl)s1 [rivaroxaban]
[4]
  Reported therapeutic concentration: approximately 600 nM
[5]; 1 μM rivaroxaban, baseline PT 14.1 sec
  PT: 23.4 s
[6]
  PT (average±standard deviation): 32.3 ± 6.1 s

## enoxaparin
[7]; enoxaparin 1 mg/kg IV bolus
  peak anticoagulation in rat plasma (Coatest LMW heparin assay): 1 anti fXa U/ml
[7]; enoxaparin 3 mg/kg IV bolus
  peak anticoagulation in rat plasma (Coatest LMW heparin assay): 4 anti fXa U/ml
[7]; rats, enoxaparin 1, 3 and 6 mg/kg IV bolus
  whole blood INR: dose proportional extensions
[8]; human, in vivo, sc, 1 mg/kg
  peak anti fXa activity: 1.1 U/ml
[8]; human, in vivo, sc
  Mean absolute bioavailability: 92%
[8]; human, in vivo
  anti-fXa level corresponding to prescribed dose: approximately 1 U/mL
[9]
  extension of clotting time compared to control plasma: greater than 5 fold
[10]
  maximum blood loss (plateau), of normal rat blood volume: approximately 5%

## COc1ccc(-n2nc(C(N)=O)c3c2C(=O)N(c2ccc(N4CCCCC4=O)cc2)CC3)cc1 [apixaban]
[5]; 1 μM apixaban
  PT: 16.4 s

## CO[C@H]1O[C@H](COS(=O)(=O)O)[C@@H](O[C@@H]2O[C@@H](C(=O)O)[C@@H](O[C@H]3O[C@H](COS(=O)(=O)O)[C@@H](O[C@@H]4O[C@H](C(=O)O)[C@@H](O[C@H]5O[C@H](COS(=O)(=O)O)[C@@H](O)[C@H](O)[C@H]5NS(=O)(=O)O)[C@H](O)[C@H]4O)[C@H](OS(=O)(=O)O)[C@H]3NS(=O)(=O)O)[C@H](O)[C@H]2OS(=O)(=O)O)[C@H](O)[C@H]1NS(=O)(=O)O [fondaparinux]
fXa (bovine fXa); human plasma
  anti-fXa activity expressed with enoxaparin as the standard: 0.80 U/ml enoxaparin
fXa (bovine fXa); rat plasma
  anti-fXa activity expressed with enoxaparin as the standard: 0.66 U/ml enoxaparin

## protamine sulfate
[7]; rats, enoxaparin 3.0 mg/kg, r-Antidote 5 mg bolus + 5 mg/h or protamine sulfate 0.9 mg
  reversal of enoxaparin-induced anticoagulation (plasma aPTT): sustained reversal
[11]; listed as Protamine
  reversal of blood loss due to fondaparinux: failed to display corrective activity
[11]; listed as protamine
  reversal of blood loss due to fondaparinux: did not reverse blood loss
[8]; slow intravenous infusion of protamine sulfate, enoxaparin prescribing information
  neutralization of enoxaparin activity: up to 60%

From patent publication US20250186563A1, “UNIT DOSE FORMULATION OF ANTIDOTES FOR FACTOR XA INHIBITORS AND METHODS OF USING THE SAME” (Alexion Pharmaceuticals, Inc., priority 2009, published 2025)
